Test results reported in patent publication US10472635B2, “Methods of treating brain edema” (priority 2015, dated 2019).
Read-outs that look alike come from different tables or passages of the source.

How the values were obtained:
Maxi-Anion Channel = conditions: cited from earlier work
[1] = tested on: neuronal [Na^+]i in brain slices; assay: Neuronal [Na+]i by CoroNa Green fluorescence / two-photon FLIM; type: cell-based, rat
[2] = tested on: cortical neurons in brain slices; assay: Neuronal swelling imaging assay in brain slices (cross sectional area of CoroNa-stained soma, two-photon); type: cell-based, rat; conditions: for magnitude of neuronal swelling: veratridine-induced, blockers present, without vs with pre-applied picrotoxin (100 μM)
CLC-2 = CLC-2 (Homo sapiens, UniProt P51788); conditions: cited from earlier work
CLC-2, sequence (P51788 whole entry): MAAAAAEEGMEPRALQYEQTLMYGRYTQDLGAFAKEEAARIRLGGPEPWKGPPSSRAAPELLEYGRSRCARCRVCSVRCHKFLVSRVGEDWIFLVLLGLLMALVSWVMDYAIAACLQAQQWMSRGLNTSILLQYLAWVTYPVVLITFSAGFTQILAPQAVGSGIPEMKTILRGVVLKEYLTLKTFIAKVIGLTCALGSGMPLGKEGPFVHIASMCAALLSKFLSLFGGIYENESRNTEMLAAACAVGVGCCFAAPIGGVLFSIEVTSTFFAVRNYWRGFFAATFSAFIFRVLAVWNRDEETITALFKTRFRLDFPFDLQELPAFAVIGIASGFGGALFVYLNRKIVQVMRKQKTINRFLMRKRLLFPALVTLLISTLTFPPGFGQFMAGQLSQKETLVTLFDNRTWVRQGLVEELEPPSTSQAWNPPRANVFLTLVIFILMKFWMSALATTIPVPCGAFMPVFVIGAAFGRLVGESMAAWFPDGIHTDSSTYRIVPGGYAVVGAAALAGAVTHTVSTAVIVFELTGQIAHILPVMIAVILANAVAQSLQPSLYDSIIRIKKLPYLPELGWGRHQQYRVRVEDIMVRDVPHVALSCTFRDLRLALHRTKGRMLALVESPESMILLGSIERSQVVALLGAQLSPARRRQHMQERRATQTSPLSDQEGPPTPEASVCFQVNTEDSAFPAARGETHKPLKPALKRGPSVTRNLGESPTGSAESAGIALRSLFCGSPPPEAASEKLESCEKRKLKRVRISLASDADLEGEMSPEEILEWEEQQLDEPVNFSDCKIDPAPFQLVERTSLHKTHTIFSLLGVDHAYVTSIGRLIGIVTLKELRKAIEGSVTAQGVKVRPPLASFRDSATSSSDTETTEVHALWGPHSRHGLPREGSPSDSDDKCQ

Pannexins, Connexins = conditions: cited from earlier work
rat hippocampal slices = assay: LDH release cell death assay in hippocampal slices; type: cell-based; conditions: for effect on veratridine-induced cell death (LDH release): 50 μM veratridine
[3] = tested on: voltage-dependent Cl^− current in layer 4 cortical neurons; assay: Whole-cell voltage clamp of depolarization-activated Cl- current; type: cell-based, rat; conditions: depolarization to −20 mV or greater; cocktail of channel blockers; GlyH-101 by dialysis
Procedure: Electrophysiology: Whole-cell recordings were performed in the presence of antagonists of GABAA (10 μM picrotoxin), AMPA/kainite (10 μM 6-cyano-7-nitoquinoxaline-2,3-dione—CNQX), and NMDA (2R-amino-5-phosphonovaleric acid—APV) receptors. 60 μM cadmium, 50 μM nickel and 100 μM 4AP (4-aminopyridine) were used to block voltage-gated calcium channels and A-type potassium channels. Whole-cell voltage-clamp recordings from cortical neurons were carried out at room temperature while the recording chamber was perfused with ACSF at 1-1.5 ml min-1. Recordings were made using a MultiClamp 700B amplifier controlled by Clampex 10.2 via a Digidata 1440A data acquisition system with 3-5M ? glass electrodes. The pipette solution containing (in m ? ): 108 CsCl, 8 TEA-Cl, 8 NaGluc, 1 CsEGTA, 4 K-ATP, 0.3 Na-GTP, 10 Hepes, 2MgCl2 (pH 7.2 with CsOH, 286 mosmol 1-1). Normal ACSF contained (in mM): 126 NaCl, 26 NaHCO3, 10 glucose, 2 MgCl2, 1.25 NaH2PO4, 2.5 KCl, 2.0 CaCl2 (pH 7.25, 310 mosmol 1-1). NaCl was replaced with 126 mM Na-isethionate in the low-chloride ACSF. Recordings where the series resistance varied more than 10% were rejected. Data were analyzed with Clampfit 10.0.
The opening of Na^+ permeable channels causes both [Na^+]i accumulation and neuronal depolarization. […] However progressive accumulation of extracellular K^+ could lead to further depolarization of the membrane. […]

CaCC = conditions: cited from earlier work
NKCC1 = target: T1, NKCC1 (Homo sapiens, UniProt P55011); conditions: cited from earlier work
T1 sequence (P55011 1-1212): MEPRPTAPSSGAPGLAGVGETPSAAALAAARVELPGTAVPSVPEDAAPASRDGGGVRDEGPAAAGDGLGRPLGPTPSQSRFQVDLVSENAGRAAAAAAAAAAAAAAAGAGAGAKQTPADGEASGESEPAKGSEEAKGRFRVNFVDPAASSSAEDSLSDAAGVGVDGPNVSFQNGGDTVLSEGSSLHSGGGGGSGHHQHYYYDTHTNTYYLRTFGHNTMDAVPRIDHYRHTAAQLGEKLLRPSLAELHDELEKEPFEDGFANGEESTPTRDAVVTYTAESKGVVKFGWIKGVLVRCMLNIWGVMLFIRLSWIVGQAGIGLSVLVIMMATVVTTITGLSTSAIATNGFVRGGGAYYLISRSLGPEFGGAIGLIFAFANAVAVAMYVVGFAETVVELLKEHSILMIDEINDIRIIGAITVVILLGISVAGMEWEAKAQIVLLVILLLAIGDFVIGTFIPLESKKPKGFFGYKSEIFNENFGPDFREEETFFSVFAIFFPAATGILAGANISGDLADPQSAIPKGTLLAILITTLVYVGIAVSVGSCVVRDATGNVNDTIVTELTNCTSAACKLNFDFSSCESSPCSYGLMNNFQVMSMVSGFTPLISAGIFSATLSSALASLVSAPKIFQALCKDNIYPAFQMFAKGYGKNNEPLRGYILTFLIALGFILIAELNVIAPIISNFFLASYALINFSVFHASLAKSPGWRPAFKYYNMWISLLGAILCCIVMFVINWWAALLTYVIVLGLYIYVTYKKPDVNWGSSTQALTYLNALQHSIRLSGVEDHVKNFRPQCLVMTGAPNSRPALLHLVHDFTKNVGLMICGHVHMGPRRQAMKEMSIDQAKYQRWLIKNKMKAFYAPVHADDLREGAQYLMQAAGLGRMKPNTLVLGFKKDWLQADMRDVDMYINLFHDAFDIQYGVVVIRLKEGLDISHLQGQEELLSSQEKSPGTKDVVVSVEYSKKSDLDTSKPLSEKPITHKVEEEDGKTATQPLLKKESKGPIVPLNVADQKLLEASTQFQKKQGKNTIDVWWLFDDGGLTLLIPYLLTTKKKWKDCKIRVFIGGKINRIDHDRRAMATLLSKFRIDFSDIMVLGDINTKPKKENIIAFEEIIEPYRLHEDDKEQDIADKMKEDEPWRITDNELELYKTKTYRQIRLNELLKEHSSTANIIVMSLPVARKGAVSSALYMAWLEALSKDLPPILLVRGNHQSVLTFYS

KCC2 = target: T2, KCC2 (Homo sapiens, UniProt Q9H2X9); conditions: cited from earlier work
T2 sequence (Q9H2X9 1-1139): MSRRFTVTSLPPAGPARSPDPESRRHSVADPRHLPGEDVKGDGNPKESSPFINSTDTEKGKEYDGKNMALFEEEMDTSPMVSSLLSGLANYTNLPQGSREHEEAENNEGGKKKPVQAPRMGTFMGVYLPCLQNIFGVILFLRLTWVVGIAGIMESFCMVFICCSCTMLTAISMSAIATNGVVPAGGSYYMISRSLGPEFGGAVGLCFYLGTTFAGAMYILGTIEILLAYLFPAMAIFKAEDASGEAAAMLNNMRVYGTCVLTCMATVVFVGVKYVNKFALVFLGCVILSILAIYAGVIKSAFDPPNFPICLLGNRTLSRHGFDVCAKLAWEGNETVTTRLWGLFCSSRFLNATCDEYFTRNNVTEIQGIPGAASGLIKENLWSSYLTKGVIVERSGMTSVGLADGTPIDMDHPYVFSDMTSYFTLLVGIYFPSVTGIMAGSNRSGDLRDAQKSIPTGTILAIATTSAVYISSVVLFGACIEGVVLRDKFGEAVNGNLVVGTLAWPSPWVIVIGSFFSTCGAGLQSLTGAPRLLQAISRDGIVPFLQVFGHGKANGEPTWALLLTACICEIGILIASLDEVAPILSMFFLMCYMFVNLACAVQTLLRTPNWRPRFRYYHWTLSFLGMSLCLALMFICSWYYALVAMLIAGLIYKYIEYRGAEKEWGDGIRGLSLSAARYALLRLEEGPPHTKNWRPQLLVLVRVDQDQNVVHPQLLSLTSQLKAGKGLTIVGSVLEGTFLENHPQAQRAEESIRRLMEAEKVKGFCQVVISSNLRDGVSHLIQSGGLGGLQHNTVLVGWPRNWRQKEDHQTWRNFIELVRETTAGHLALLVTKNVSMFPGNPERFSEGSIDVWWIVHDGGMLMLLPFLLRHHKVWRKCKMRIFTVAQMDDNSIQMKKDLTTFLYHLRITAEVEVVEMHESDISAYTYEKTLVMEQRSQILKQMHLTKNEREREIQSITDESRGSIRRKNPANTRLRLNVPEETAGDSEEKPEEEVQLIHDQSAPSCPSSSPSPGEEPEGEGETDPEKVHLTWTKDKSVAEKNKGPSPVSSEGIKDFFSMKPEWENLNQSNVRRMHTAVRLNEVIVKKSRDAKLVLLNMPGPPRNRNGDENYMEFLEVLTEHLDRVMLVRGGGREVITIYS

VRAC = conditions: cited from earlier work
[4] = 22-24 °C, antagonist bath applied and in puffing pipette, DIDS 250 μM, NPPB 200 μM, TTX 1 μM
[5] = pressure ejection, Cd2+, CNQX, picrotoxin present, d-APV with veratridine, TTX with NMDA

[Gd+3] [Gd^3+]
concentration (antagonist sensitivity of channel/transporter) (Maxi-Anion Channel): 30 to 50 µM

COc1ccc(C(=O)O[C@H]2CC[C@@]3(C)[C@@H]4CC[C@H]5[C@]6(O)C[C@H](O)[C@@]7(O)[C@@H](CN8C[C@@H](C)CC[C@H]8[C@@]7(C)O)[C@]6(O)C[C@@]53O[C@]24O)cc1OC [veratridine]
[Na+]i (calibrated value, CoroNa FLIM) ([1]; throughout veratridine application): approximately 94.46±2.14 mM | magnitude of neuronal swelling [2]: 161.7%

[Zn] [Zinc]
concentration (antagonist sensitivity of channel/transporter) (CLC-2): 100 µM

N[C@H](CCCP(=O)(O)O)C(=O)O [d-APV, 2R-amino-5-phosphonovaleric acid]
effect on NMDA-induced [Na+]i increase ([1]; CoroNa signal, d-APV 100 μM): blocked | effect on NMDA-induced neuronal swelling ([2]; DIDS 250 μM, 500 μM, 1 mM, d-APV 100 μM): blocked

CC1(C)[C@@H](OC(=O)CCC(=O)O)CC[C@]2(C)[C@H]3C(=O)C=C4[C@@H]5C[C@@](C)(C(=O)O)CC[C@]5(C)CC[C@@]4(C)[C@]3(C)CC[C@@H]12 [CBX, carbenoxelone]
concentration (antagonist sensitivity of channel/transporter) (Pannexins, Connexins): 100 µM

O=C(CNc1ccc2ccccc2c1)N/N=C/c1cc(Br)c(O)c(Br)c1O [GlyH-101]
effect on veratridine-induced cell death (LDH release) (rat hippocampal slices): profoundly inhibited | effect on non-inactivating Cl- current elicited by depolarization [3]: inhibit | effect on veratridine-induced neuronal swelling [2, 4]: profoundly inhibited

CN[C@H](CC(=O)O)C(=O)O [NMDA, N-Methyl-D-aspartic acid]
change in neuronal [Na+]i on application [1, 5]: significant increase | LDH release (cell death) on application (rat hippocampal slices; 15 min application, LDH after 90 min, veratridine 50 μM, NMDA 100 μM in 0 mM Ca2+, 2 mM EGTA, CNQX, picrotoxin, Cd2+ present): rapid and significant increase | neuronal cross sectional area after NMDAR activation ([2]; extracellular Ca2+ free solution (0 mM Ca2+, 2 mM EGTA), TTX, Cd2+, CNQX, picrotoxin present): 161.60±10.55 % of baseline | neuronal cross sectional area after NMDAR activation ([2]; extracellular Na+ replaced with NMDG (152 mM to 26 mM), normal Ca2+): 86.7 % of baseline | change in neuronal cell volume on application [2, 5]: increase in neuronal cell volume

picrotoxin
magnitude of neuronal swelling [2]: 146.9%

NC1=N[C@H](O)[C@H]2[C@H]3O[C@]4(O)O[C@@H]([C@@H](O)[C@@]2(N1)[C@@H]4O)[C@]3(O)CO [TTX, Tetrodotoxin]
effect on veratridine-induced [Na+]i increase [1]: blocked | effect on veratridine-induced neuronal swelling [2]: blocked

O=C(O)c1cccnc1Nc1cccc(C(F)(F)F)c1 [NFA, niflumic acid]
concentration (antagonist sensitivity of channel/transporter) (CaCC): 50 to 100 µM

CCCCNc1cc(C(=O)O)cc(S(N)(=O)=O)c1Oc1ccccc1 [Bumetanide, bumetanide]
Ki (NKCC1): ~0.1 µM | Ki (KCC2): 25 to 50 µM

O=C(O)c1cc([N+](=O)[O-])ccc1NCCCc1ccccc1 [NPPB]
concentration (antagonist sensitivity of channel/transporter) (CaCC): 100 µM | concentration (antagonist sensitivity of channel/transporter) (Maxi-Anion Channel): 100 µM | effect on veratridine-induced cell death (LDH release) (rat hippocampal slices): no effect | effect on NMDA-induced cell death (LDH release), Ca2+-independent (rat hippocampal slices; NMDA in Ca2+ free extracellular solution): blocked by DIDS but not NPPB | concentration (antagonist sensitivity of channel/transporter) (VRAC): 40 to 100 µM | effect on veratridine-induced neuronal swelling [2, 4]: no protection
